Read-outs that look alike come from different tables or passages of the source.
Legend:
[1] = test system: primary, nonsyncytium-inducing (NSI) HIV-1 strains; details: primary NSI HIV-1 strains; cited from earlier work
[2] = test system: primary HIV isolates; details: cited from earlier work
[3] = test system: env-mediated cell-cell fusion; details: cited from earlier work
[4] = target: T1, CCCKR5 (Homo sapiens, UniProt P51681); details: transfected CHO-K1 cells; cited from earlier work
T1 construct: expressed in transfected cells; host or cells: CHO-K1 (stably transfected)

[5] = test system: CXCR4 dependent primary and lab-adapted HIV viruses; details: cited from earlier work
[6] = test system: CCR5-tropic strains; details: cited from earlier work
[7] = target: T2, CCR5 (Homo sapiens, UniProt P51681); assay: Dissociation constant of the CCR5/gp120 interaction, applicant's work with recombinant proteins; assay type: binding
T2 construct: antagonist of CCR5 function in monocytes; endogenous in cells; host or cells: monocytes

[8] = target: T2, CCR5; details: described by others in model systems; read-out: dissociation constant (Kd) of the interaction of CCR5 with gp120; cited from earlier work

RANTES: protein which is regulated upon activation and is normal T-cell expressed and secreted
inhibition of infection of CD4(+) cells at the virus entry stage [1]: inhibit infection
suppression of replication of primary HIV isolates [2]: suppress replication
block of env-mediated cell-cell fusion [3]: block env-mediated cell-cell fusion
agonist activity at CCCKR5 [4]: active at physiologic concentrations

SDF-1: chemokine shown to suppress replication of primary HIV isolates
suppression of replication of primary HIV isolates [2]: suppress replication

c1cc(CN2CCCNCCNCCCNCC2)ccc1CN1CCCNCCNCCCNCC1 [AMD3100]
inhibition of infection of susceptible cultures [5]: inhibit infection

MIP-1-α: macrophage inflammatory protein, β-chemokine ligand of CCR5
inhibition of infection of CD4(+) cells at the virus entry stage [1]: inhibit infection
suppression of replication of primary HIV isolates [2]: suppress replication
block of env-mediated cell-cell fusion [3]: block env-mediated cell-cell fusion
agonist activity at CCCKR5 [4]: most potent agonist

Cc1ccc(-c2ccc3c(c2)C=C(C(=O)Nc2ccc(C[N+](C)(C)C4CCOCC4)cc2)CCC3)cc1.[Cl-] [TAK 779]
block of entry of CCR5-tropic strains [6]: blocks entry

gp120: envelope protein of HIV that is required for viral entry into the target cells
Kd [7]: 100 to 1000 nM
Kd [8]: ~1 nM

Reference: patent publication US20010039026A1, “Assay method” (priority 2000, published 2001)
